These results are taken from patent publication US7745431B2, “Pharmaceutical composition of 1-(3,4-dimethoxyphenyl)-4-methyl-5-ethyl-7-methoxy-8-hydroxy-5H-2,3-benzodiazepine and uses thereof” (priority 2002, dated 2010).

Where two headings read alike, the source gives them in different places.

One test deals with Male Swiss mice. Briefly: Mouse maximal electroshock test. The class given is in vivo. To be noted: for Duration of tonic seizure Mean ± SEM: i.p., about 30 min before electroshock, mice; for anticonvulsant activity: vs. vehicle. As to the method:
In this model of tonic-clonic seizure activity, seizures were produced by application of an AC current via corneal electrodes. The maximal electroshock model is commonly employed to assay anticonvulsant activity. See, Swinyard et al., J. Pharmacol. Exp. Therap., 1952, 106, 319-330; the entire disclosure of which is incorporated herein by reference.
Each animal was dosed with one of:
(1) diazepam, 20 mg/kg dissolved in normal saline as a reference standard;
(2) 1-(3,4-dimethoxyphenyl)-4-methyl-5-ethyl-7-methoxy-8-hydroxy-5H-2,3-benzodiazepine at a dose of 15, 30, 45 or 60 mg/kg; dissolved in 15% DMSO, 35% PEG and 50% deionized water (vehicle); or
(3) vehicle comprising 15% DMSO, 35% PEG and 50% deionized water.
The concentrations of each of the dosed substances were normalized such that the volume of each dose was 10 mL/kg.
Approximately thirty minutes following administration of the above dose, full tonic-clonic seizures were induced in the animals by applying an AC current (50 Hz, 50 mA, 0.2 seconds) using an ECT unit 7800 (Ugo Basile, Comerio, Italy) through corneal electrodes. The appearance and duration of the induced seizures, as characterized by a tonic extension of hindlimbs past 90° were recorded. The seizure data are reproduced in Table 4 showing the seizure data as a mean with a standard error of the mean.
Background: In the maximal electroshock model the usual endpoint is tonic extension of the hind limbs.

The next test concerns the target T1, TXA2 receptor (Homo sapiens, UniProt P21731).
T1 construct: determined via the human platelet-based assay of Hedberg et al; from tissue; host or cells: human platelets
T1 sequence (P21731 1-343): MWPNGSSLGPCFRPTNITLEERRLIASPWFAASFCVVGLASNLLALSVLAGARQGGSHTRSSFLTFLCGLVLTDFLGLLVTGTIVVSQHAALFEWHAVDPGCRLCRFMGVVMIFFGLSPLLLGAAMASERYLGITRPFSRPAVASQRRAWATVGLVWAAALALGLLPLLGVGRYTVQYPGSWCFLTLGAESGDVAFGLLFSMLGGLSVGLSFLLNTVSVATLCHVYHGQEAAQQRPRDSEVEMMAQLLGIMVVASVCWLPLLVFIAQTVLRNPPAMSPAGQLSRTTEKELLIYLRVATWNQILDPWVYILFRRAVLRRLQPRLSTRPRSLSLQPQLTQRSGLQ
The experiment in a line: TXA2 binding assay, [3H]SQ 29,548, human platelet-based. To be noted: for inhibition at 10 µM: inhibition of [3H]SQ 29,548 binding, human platelets. As to the method: The ability of 1-(3,4-dimethoxyphenyl)-4-methyl-5-ethyl-7-methoxy-8-hydroxy-5H-2,3-benzodiazepine to inhibit the binding of [^3H]SQ 29,548 (30-60 Ci/mmol) was determined via the human platelet-based assay of Hedberg et al., “Characterization of [^3H]SQ 29,548 as a High Affinity Radioligand Binding to Thromboxane A2—Receptors in Human Platelets.”, J. Pharmacol. Exp. Ther. 245: 786-792 (1988), with modifications. TXA2 is a very unstable molecule, thus a surrogate ligand of known affinity for the TXA2 receptor is required as a standard for determination of binding affinity of new potential TXA2 ligands. [^3H]SQ 29,548 is a ligand with known binding affinity for the TXA2 receptor. [^3H]SQ 29,548 has been employed as a TXA2 ligand in several published studies, is accepted as a TXA2 binding standard, and is thus useful as a standard in assessing the binding affinity of new compounds to the TXA2 receptor. See also, Armstrong, R. A., Jones, R. L., et al. “Ligand Binding to Thromboxane Receptors on Human Platelets: Correlation with Biological Activity.” Brit. Jrnl. Pharmac. 79:953-964 (1983), the entire disclosures of which are incorporated herein by reference.
Reactions were carried out in 25 mM TRIS-HCl (pH 7.4) containing 138 mM NaCl, 5 mM KCl, 5 mM MgCl2, 5.5 mM dextrose, and 2 mM EDTA at 25° C. for 60 minutes. […] The reaction was terminated by rapid vacuum filtration onto glass fiber filters. Radioactivity trapped onto the filters was determined and compared to control values in order to ascertain any interactions of test compound with the thromboxane A2 binding site.

A further test deals with adenosine receptor. Briefly: Adenosine binding assay, [3H]-NECA, bovine striatal membrane. As for the experimental part:
The ability of 1-(3,4-dimethoxyphenyl)-4-methyl-5-ethyl-7-methoxy-8-hydroxy-5H-2,3-benzodiazepine to inhibit the binding of [^3H]5′-N-ethylcarboxamidoadenosine (NECA) (15-30 Ci/mmol) was determined via the bovine striatal membrane assay of Bruns et al., “Characterization of the A2 Adenosine Receptor Labeled by [^3H]-NECA in Rat Striatal Membrane”, Pharmacology, 29: 331-346 (1986), with modifications. See also, Weir et al. “Inhibition of N6-[^3H]CHA Binding by Carbamazepine” Epilepsia, 31(5), 503-512 (1990) with modifications; and Holtzman et al., “Role of Adenosine Receptors in Caffeine Tolerance,” J. Pharmacol. & Exp. Ther., 256(1), 62-67 (1990).
Reactions were carried out in 50 mM TRIS-HCl (pH 7.7) at 25° C. for 60 minutes. The reaction was terminated by rapid vacuum filtration onto glass fiber filters. Radioactivity trapped onto the filters was determined and compared to control values in order to ascertain any interactions of test compound with the adenosine binding site.

The target in another test is T2, LTB4 receptor (Cavia porcellus, UniProt H0VYV8).
T2 construct: 1.0 mg/mL of the Guinea pig spleen membrane preparation; from tissue; host or cells: guinea pig spleen membranes
The experiment in a line: Inhibition of [3H]LTB4 binding, guinea pig spleen membrane assay. As for the experimental part:
The ability of 1-(3,4-dimethoxyphenyl)-4-methyl-5-ethyl-7-methoxy-8-hydroxy-5H-2,3-benzodiazepine to inhibit [^3H]LTB4 binding to the LTB4 receptor was determined as follows using the guinea pig spleen membrane assay of Cheng et al., J. Pharmacol. Exp. Ther., 236(1), 126-132, 1986, the entire disclosure of which is incorporated herein by reference.
Reactions were carried out in a phosphate buffer (pH 7.4) containing NaCl, MgCl2, EDTA, and bacitracin. The reaction volume of 150 μL containing 1.0 mg/mL of the Guinea pig spleen membrane preparation and 1 nM [^3H]LTB4, with or without a candidate inhibitor, was incubated at 0-4° C. for 2 hours. Candidate inhibitors included the compounds listed in Table 1 and unlabeled LTB4 as a control. The reaction was terminated by rapid vacuum filtration onto glass fiber filters. The filter was washed with cold buffer, dried and placed in a scintillation vial. Radioactivity trapped onto the filters was determined and compared to control values in order to ascertain any interactions of the test compound with the LTB4 binding site.

The subject of the next test is rats. The settings on record: cited from earlier work.
For test [1], the system named is mice. To be noted: cited from earlier work.
In test [2] the test system is mice. The settings on record: cited from earlier work. The source holds these as a separate data set.
For a further test, the target named is peripheral BZ receptors (Homo sapiens, UniProt P30536). The settings on record: cited from earlier work.
The test system of the next test is central BZ receptors. The settings on record: cited from earlier work.

T2 sequence (H0VYV8 1-348): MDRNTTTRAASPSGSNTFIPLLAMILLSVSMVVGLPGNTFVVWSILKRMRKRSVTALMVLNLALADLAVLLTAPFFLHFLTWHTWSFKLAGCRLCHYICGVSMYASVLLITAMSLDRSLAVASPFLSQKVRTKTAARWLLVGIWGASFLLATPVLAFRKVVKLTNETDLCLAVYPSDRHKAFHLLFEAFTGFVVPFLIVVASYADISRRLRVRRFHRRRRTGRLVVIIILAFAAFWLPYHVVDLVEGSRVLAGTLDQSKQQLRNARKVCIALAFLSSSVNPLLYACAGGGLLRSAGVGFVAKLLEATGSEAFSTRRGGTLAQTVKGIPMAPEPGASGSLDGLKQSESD
Chain of peripheral BZ receptors (P30536 whole entry): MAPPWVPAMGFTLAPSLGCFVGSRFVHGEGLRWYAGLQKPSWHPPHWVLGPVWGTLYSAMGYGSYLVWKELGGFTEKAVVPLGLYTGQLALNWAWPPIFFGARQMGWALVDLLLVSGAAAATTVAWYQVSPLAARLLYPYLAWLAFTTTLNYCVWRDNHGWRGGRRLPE

Regarding `CCC1C(C)=NN=C(c2ccc(OC)c(OC)c2)c2cc(O)c(OC)cc21` (racemic) [Compound 2, 1-(3,4-dimethoxyphenyl)-4-methyl-5-ethyl-7-methoxy-8-hydroxy-5H-2,3-benzodiazepine], the “Duration of tonic seizure Mean ± SEM” value amounted to 9.0 ± 2.5 s in the test with Male Swiss mice (15 mg/kg), 5.5 ± 1.1 s in the test with Male Swiss mice (30 mg/kg), 6.5 ± 1.7 s in the test on Male Swiss mice (45 mg/kg) and 5.7 ± 1.8 s with Male Swiss mice (60 mg/kg). Moreover, the anticonvulsant activity entry in the test on Male Swiss mice (60 mg dose) is “comparable anticonvulsant activity, but fell short of statistical significance”; in the test with Male Swiss mice (30 and 45 mg/kg doses) it was “statistically significant anticonvulsant activity”. In addition, the inhibition – broadly, the change of the read-out against control, counted positive when it falls – at 10 µM on TXA2 receptor came out at 48.3%; at LTB4 receptor it was 36%. In addition, the “Adenosine non-selective @ 10 μM (inhibition of [3H]-NECA binding)” value in the test with adenosine receptor amounted to 61.50%. The “LTB4 % inhibition @ 10 μM” value on LTB4 receptor (10 µM) is listed as 35.96%.
Turning to `CCC1C(C)=NN=C(c2ccc(OC)c(OC)c2)c2cc(OC)c(O)cc21` (stereo not drawn) [Compound 1, 1-(3,4-dimethoxyphenyl)-4-methyl-5-ethyl-7-hydroxy-8-methoxy-5H-2,3-benzodiazepine], the inhibition of muricide in the test on rats is on record as 20%. Moreover, in the test on mice [1], the inhibition of aggression was 0%. Also, the inhibition at 10 µM turned out to be 42.7% on TXA2 receptor and 20.4% at LTB4 receptor. The “Adenosine non-selective @ 10 μM (inhibition of [3H]-NECA binding)” value with adenosine receptor was determined as 6.73%.
Consider `CCC1C(C)=NN=C(c2ccc(O)c(OC)c2)c2cc(OC)c(OC)cc21` (stereo not drawn) [Compound 3, 1-(3-methoxy-4-hydroxyphenyl)-4-methyl-5-ethyl-7,8-dimethoxy-5H-2,3-benzodiazepine], for which the inhibition of muricide in the test on rats was 0%. In the test on mice [1], the inhibition of aggression was 0%. Moreover, the narcosis-potentiating activity entry with mice [2] is on record as “demonstrate narcosis-potentiating activity”. Further, the values for the inhibition at 10 µM on TXA2 receptor and on LTB4 receptor were 1.98% and 49.9%, respectively. In addition, the “Adenosine non-selective @ 10 μM (inhibition of [3H]-NECA binding)” value in the test on adenosine receptor was “inactive”.
As for `CCC1C(C)=NN=C(c2ccc(OC)c(O)c2)c2cc(OC)c(OC)cc21` (stereo not drawn) [Compound 4, 1-(3-hydroxy-4-methoxyphenyl)-4-methyl-5-ethyl-7,8-dimethoxy-5H-2,3-benzodiazepine], the results for the inhibition at 10 µM at TXA2 receptor and at LTB4 receptor were 25.9% and 63.9%, respectively. Besides, in the test on adenosine receptor, the “Adenosine non-selective @ 10 μM (inhibition of [3H]-NECA binding)” value is listed as 4.26%.
As to `CCC1C(C)=NN=C(c2ccc(O)c(OC)c2)c2cc(OC)c(O)cc21` (stereo not drawn) [Compound 5, 1-(3-methoxy-4-hydroxyphenyl)-4-methyl-5-ethyl-7-hydroxy-8-methoxy-5H-2,3-benzodiazepine], the inhibition of muricide in the test with rats is given as 20%. Besides, the inhibition of aggression with mice [1] was 28.6%. Moreover, at 10 µM the inhibition at TXA2 receptor was 44%. In addition, the “Adenosine non-selective @ 10 μM (inhibition of [3H]-NECA binding)” value with adenosine receptor is given as 22.40%. Besides, the “LTB4 % inhibition @ 10 μM” value at LTB4 receptor was “inactive”.
Take `CCC1C(C)=NN=C(c2ccc(OC)c(O)c2)c2cc(OC)c(O)cc21` (stereo not drawn) [Compound 6, 1-(3-hydroxy-4-methoxyphenyl)-4-methyl-5-ethyl-7-hydroxy-8-methoxy-5H-2,3-benzodiazepine]: the inhibition at 10 µM at TXA2 receptor came to 45.7%. The “Adenosine non-selective @ 10 μM (inhibition of [3H]-NECA binding)” value with adenosine receptor is given as 27.52%. At LTB4 receptor, the “LTB4 % inhibition @ 10 μM” value is “inactive”.
As to `CN1C(=O)CN=C(c2ccccc2)c2cc(Cl)ccc21` [Diazepam, diazepam], in the test with Male Swiss mice (20 mg/kg), the “Duration of tonic seizure Mean ± SEM” value was 1.8 ± 0.7 s.
For the compound `CCC1C(C)=NN=C(c2ccc(OC)c(OC)c2)c2cc(OC)c(OC)cc21` (stereo not drawn) [tofisopam], at peripheral BZ receptors, the “binding to peripheral BZ receptors” value is recorded as “binds only weakly”. Further, the “interaction with central BZ receptors” value in the test with central BZ receptors is “does not interact”.
Regarding Pinane-thromboxane, affinity on TXA2 receptor (competitor in the [3H]SQ 29,548 binding assay) was put at a Ki of 149 nM.
